Source: ChEMBL document CHEMBL3639166, “Heteroaryloxyheterocyclyl compounds as PDE10 inhibitors” (2013)

The compounds below were run against T1, cAMP and cAMP-inhibited cGMP 3',5'-cyclic phosphodiesterase 10A (Rattus norvegicus, UniProt Q9QYJ6) (assay: Enzyme Inhibition Assay: Enzyme activity: An IMAP TR-FRET assay was used to analyze the enzyme activity (Molecular Devices Corp., Sunnyvale, Calif).).
T1 sequence (Q9QYJ6 whole entry): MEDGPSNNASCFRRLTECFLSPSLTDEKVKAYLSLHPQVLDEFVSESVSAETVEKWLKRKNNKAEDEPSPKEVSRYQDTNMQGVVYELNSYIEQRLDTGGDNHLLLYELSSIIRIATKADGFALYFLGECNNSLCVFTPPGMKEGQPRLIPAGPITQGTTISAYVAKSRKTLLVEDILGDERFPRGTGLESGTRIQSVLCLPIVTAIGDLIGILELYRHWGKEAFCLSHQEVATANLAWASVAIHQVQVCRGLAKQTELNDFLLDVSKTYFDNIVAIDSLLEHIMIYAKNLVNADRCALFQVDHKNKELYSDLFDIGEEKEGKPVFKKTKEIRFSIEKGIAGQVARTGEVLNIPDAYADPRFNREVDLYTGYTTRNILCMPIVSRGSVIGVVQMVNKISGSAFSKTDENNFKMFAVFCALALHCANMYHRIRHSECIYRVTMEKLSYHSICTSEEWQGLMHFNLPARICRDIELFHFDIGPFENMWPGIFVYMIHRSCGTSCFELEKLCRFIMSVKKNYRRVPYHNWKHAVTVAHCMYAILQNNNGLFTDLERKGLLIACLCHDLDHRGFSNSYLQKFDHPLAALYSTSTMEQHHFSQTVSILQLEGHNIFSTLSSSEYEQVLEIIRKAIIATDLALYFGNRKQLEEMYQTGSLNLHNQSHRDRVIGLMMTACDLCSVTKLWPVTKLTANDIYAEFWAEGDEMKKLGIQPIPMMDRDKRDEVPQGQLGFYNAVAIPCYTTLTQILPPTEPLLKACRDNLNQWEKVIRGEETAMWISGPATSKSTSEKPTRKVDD

Compound	IC50
CC(=O)N1CCC(c2nccnc2OC2CCN(c3ccccn3)CC2)CC1	2850 nM
Cc1cccc2ccc(N3CCC(Oc4nccnc4C4CCOCC4)CC3)nc12	7840 nM
O=C(c1nc2ccccc2[nH]1)N1CC[C@@H](Oc2ncccc2C2CCOCC2)C1	1820 nM
Cc1cccc(N2CCC(Oc3nccnc3C3CCOCC3)CC2)n1	1440 nM
CC(=O)N1CCCC(c2cccnc2OC2CN(C(=O)c3nc4ccccc4[nH]3)C2)C1 (stereo not drawn)	6.47 nM
CC(=O)N1CCC(c2cccnc2OC2CN(C(=O)c3nc4ccccc4[nH]3)C2)CC1	102 nM
CC(=O)N1CCN(c2nccnc2OC2CN(c3ccc4ccccc4n3)C2)CC1	77.5 nM
O=C(c1nc2ccccc2[nH]1)N1CC(Oc2nccnc2N2CCC(O)CC2)C1	186 nM
O=C(c1nc2ccccc2[nH]1)N1CC(Oc2nccnc2C2CCOCC2)C1	884 nM
CC(=O)N1CCC(c2nccnc2OC2CCN(c3ncccc3Cl)CC2)CC1	1440 nM
c1ccc2nc(N3CC[C@H](Oc4nccnc4C4CCOCC4)C3)ccc2c1	447 nM
CC(=O)N1CC=C(c2nccnc2OC2CN(c3nc4ccccc4s3)C2)CC1	63.1 nM
CC(=O)N1CCC(c2cccnc2OC2CN(C(=O)OC(C)(C)C)C2)CC1	10200 nM
Cc1cc(-c2nccnc2OC2CN(c3ccc4ccccc4n3)C2)ccn1	12.7 nM
c1cncc(-c2nccc(OC3CN(c4ccc5ccccc5n4)C3)n2)c1	35.6 nM
Nc1ccc(-c2nccc(OC3CN(c4ccc5ccccc5n4)C3)n2)cc1	110 nM
CC(C)(C)OC(=O)N1CCC=C(c2nccnc2OC2CN(C(=O)c3nc4ccccc4[nH]3)C2)C1	227 nM
c1cnc(O[C@@H]2CCN(c3nc4ccccc4[nH]3)C2)c(C2CCOCC2)c1	3590 nM

Continued, values first:

IC50	Compound
85.8 nM	CC(C)(O)C1CCN(c2nccnc2OC2CCN(c3ccc4ccccc4n3)CC2)CC1
0.864 nM	O=C(c1nc2ccccc2[nH]1)N1CC(Oc2ncccc2C2=CCOCC2)C1
83.9 nM	Clc1cnccc1-c1nccnc1OC1CCN(c2ccc3ccccc3n2)CC1
20 nM	OCC1CCN(c2ncc(F)c(OC3CN(c4ccc5ccccc5n4)C3)n2)CC1
266 nM	Cc1ccc2ccc(N3CCC(Oc4ncccc4C4CCOCC4)CC3)nc2c1
7 nM	OCC1CCN(c2ncc(Br)c(OC3CN(c4ccc5ccccc5n4)C3)n2)CC1
128 nM	Cc1ccccc1-c1nccnc1OC1CN(c2ccc3ccccc3n2)C1
34.7 nM	Cc1cnccc1-c1nccnc1OC1CCN(c2ccc3ccccc3n2)CC1
409 nM	O=C(c1nc2ccccc2[nH]1)N1CC[C@H](Oc2ncccc2C2CCOCC2)C1
68.9 nM	N#CC1CCN(c2cccnc2OC2CN(c3ccc4ccccc4n3)C2)CC1
20 nM	OCC1CCN(c2nccnc2NC2CN(c3ccc4ccccc4n3)C2)CC1
24.2 nM	OCC1CCN(c2ncc(Br)c(OC3CN(c4cnc5ccccc5n4)C3)n2)CC1
637 nM	CC(=O)N1CCN(c2nccnc2OC2CN(C(=O)c3nc4ccccc4[nH]3)C2)CC1
68.8 nM	CC(=O)N1CCC(c2cccnc2OC2CN(c3ccc4ccccc4n3)C2)CC1
21.1 nM	O=C(c1nc2ccccc2[nH]1)N1CC(Oc2ncccc2[C@H]2CC[C@@H](O)CC2)C1
520 nM	CN(C)C1CCN(c2nccnc2OC2CN(c3ccc4ccccc4n3)C2)CC1
44.6 nM	c1ccc2nc(N3CC(Oc4nccnc4N4CCCOCC4)C3)ccc2c1
230 nM	O=C(c1nc2ccccc2[nH]1)N1CCC(Oc2nccnc2-c2ccncc2)CC1
64.8 nM	CC(=O)N1CCC(c2cc(F)cnc2OC2CN(c3ccc4ccccc4n3)C2)CC1
260 nM	OCC1CCCCN1c1ncc(Br)c(OC2CN(c3ccc4ccccc4n3)C2)n1 (stereo not drawn)
92.1 nM	FC1(F)CCCN(c2nccnc2OC2CN(c3ccc4ccccc4n3)C2)C1
29.5 nM	OC1CCCN(c2nccnc2OC2CN(c3ccc4ccccc4n3)C2)CC1 (stereo not drawn)
53.5 nM	Cc1cccc(-c2nc3ccccc3nc2OC2CN(c3ccc4ccccc4n3)C2)c1
195 nM	O=C1CCN(c2nccnc2OC2CCN(c3ccc4ccccc4n3)CC2)CC1
12 nM	c1cnc(OC2CN(c3ccc4ccccc4n3)C2)c(N2CCOCC2)c1
